Reference: article PMC7933434, “Entropy-driven binding of gut bacterial β-glucuronidase inhibitors ameliorates irinotecan-induced toxicity” (Communications Biology, 2021)
“And” between values parts separate entries of the source, which are not always exact repeats. Equal values may be shown once.

Key:
HsGUS (human GUS) = target: T1, HsGUS (human GUS) (Homo sapiens, UniProt P08236); experiment: GUS inhibition assay, hydrolysis of 4-methylumbelliferyl-β-glucuronide, HsGUS; type: biochemical; parameters: GUS activity (hydrolysis rate of MUG): unit not given here; conditions: for Ki: HsGUS
T1 construct: HsGUS was prepared as described[37]; made in house
T1 sequence (P08236 23-651): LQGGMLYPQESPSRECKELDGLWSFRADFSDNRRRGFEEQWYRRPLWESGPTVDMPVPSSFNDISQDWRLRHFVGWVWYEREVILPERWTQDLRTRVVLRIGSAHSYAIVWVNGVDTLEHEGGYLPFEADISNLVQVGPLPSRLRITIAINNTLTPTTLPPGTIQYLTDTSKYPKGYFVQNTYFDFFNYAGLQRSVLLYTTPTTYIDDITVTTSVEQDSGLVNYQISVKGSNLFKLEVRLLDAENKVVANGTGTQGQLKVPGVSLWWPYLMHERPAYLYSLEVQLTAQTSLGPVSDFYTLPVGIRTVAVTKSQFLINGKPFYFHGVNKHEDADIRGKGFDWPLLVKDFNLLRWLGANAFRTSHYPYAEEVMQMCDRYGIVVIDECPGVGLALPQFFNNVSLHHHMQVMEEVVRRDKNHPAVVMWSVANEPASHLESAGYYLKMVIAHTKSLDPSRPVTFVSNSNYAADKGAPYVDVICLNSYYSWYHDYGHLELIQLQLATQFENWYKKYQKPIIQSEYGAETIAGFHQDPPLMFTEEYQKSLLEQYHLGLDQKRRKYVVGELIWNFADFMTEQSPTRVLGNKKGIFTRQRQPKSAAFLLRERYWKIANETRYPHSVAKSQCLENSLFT

[1] = target: LgGUS (Lactobacillus gasseri GUS) (Lactobacillus gasseri, UniProt Q9AHJ8); experiment: GUS inhibition assay, hydrolysis of 4-methylumbelliferyl-β-glucuronide, LgGUS; type: biochemical; conditions: LgGUS; 50 mM sodium acetate pH 4.5, 37 °C
LgGUS (Lactobacillus gasseri GUS), sequence (Q9AHJ8 1-598): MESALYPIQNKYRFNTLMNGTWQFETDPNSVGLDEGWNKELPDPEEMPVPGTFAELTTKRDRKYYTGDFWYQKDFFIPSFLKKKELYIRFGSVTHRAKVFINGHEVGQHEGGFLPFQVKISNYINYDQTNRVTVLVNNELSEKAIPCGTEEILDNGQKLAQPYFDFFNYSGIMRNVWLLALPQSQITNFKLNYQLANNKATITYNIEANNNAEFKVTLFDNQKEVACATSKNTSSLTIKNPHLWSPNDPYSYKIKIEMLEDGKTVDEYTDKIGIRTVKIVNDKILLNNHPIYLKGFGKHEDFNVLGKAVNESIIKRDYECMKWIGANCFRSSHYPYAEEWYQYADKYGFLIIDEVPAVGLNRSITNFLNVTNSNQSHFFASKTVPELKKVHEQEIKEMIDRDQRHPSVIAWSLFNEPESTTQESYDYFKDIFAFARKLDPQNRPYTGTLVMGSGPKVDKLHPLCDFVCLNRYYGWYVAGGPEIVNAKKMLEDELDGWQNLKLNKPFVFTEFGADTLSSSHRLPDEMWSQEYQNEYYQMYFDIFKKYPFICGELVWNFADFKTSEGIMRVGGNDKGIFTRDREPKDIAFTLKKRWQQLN

[2] = parameters: method as in PMID 18537837; conditions: endocyclic amine; cited from earlier work

O=C(O)[C@H]1CNC[C@@H](O)[C@@H]1O [Inhibitor 1, Uronic isofagomine]
Ki (HsGUS (human GUS)): 180 nM | Ki (HsGUS (human GUS); 50 mM sodium acetate pH 4.5, 37 °C): 180 ± 2 nM | GUS activity (hydrolysis rate of MUG) (HsGUS (human GUS); [Inhibitor 1] =6.25 nM, [MUG] 0.1 mM): 1052.77 and 919.367 | GUS activity (hydrolysis rate of MUG) (HsGUS (human GUS); [Inhibitor 1] =6.25 nM, [MUG] 0.2 mM): 1682.62 and 1656.5 | GUS activity (hydrolysis rate of MUG) (HsGUS (human GUS); [Inhibitor 1] =6.25 nM, [MUG] 0.4 mM): 2736.45 and 2863.61 | GUS activity (hydrolysis rate of MUG) (HsGUS (human GUS); [Inhibitor 1] =6.25 nM, [MUG] 0.6 mM): 3626.7 and 3614.16 | GUS activity (hydrolysis rate of MUG) (HsGUS (human GUS); [Inhibitor 1] =6.25 nM, [MUG] 0.8 mM): 4294.49 and 4051.74 | GUS activity (hydrolysis rate of MUG) (HsGUS (human GUS); [Inhibitor 1] =6.25 nM, [MUG] 1.2 mM): 5041.75 and 5285.84 | GUS activity (hydrolysis rate of MUG) (HsGUS (human GUS); [Inhibitor 1] =6.25 nM, [MUG] 1.6 mM): 5716.1 and 5569.72 | GUS activity (hydrolysis rate of MUG) (HsGUS (human GUS); [Inhibitor 1] =6.25 nM, [MUG] 2 mM): 6253.7 and 6084.56 | GUS activity (hydrolysis rate of MUG) (HsGUS (human GUS); [Inhibitor 1] =12.5 nM, [MUG] 0.1 mM): 964.973 and 946.536 | GUS activity (hydrolysis rate of MUG) (HsGUS (human GUS); [Inhibitor 1] =12.5 nM, [MUG] 0.2 mM): 1634.13 and 1650.2 | GUS activity (hydrolysis rate of MUG) (HsGUS (human GUS); [Inhibitor 1] =12.5 nM, [MUG] 0.4 mM): 2735.98 and 2661.78 | GUS activity (hydrolysis rate of MUG) (HsGUS (human GUS); [Inhibitor 1] =12.5 nM, [MUG] 0.6 mM): 3585.06 and 3536.5 | GUS activity (hydrolysis rate of MUG) (HsGUS (human GUS); [Inhibitor 1] =12.5 nM, [MUG] 0.8 mM): 4058.66 and 4004.34 | GUS activity (hydrolysis rate of MUG) (HsGUS (human GUS); [Inhibitor 1] =12.5 nM, [MUG] 1.2 mM): 4753.61 and 4787.97 | GUS activity (hydrolysis rate of MUG) (HsGUS (human GUS); [Inhibitor 1] =12.5 nM, [MUG] 1.6 mM): 5496.19 and 5468.5 | GUS activity (hydrolysis rate of MUG) (HsGUS (human GUS); [Inhibitor 1] =12.5 nM, [MUG] 2 mM): 6215.35 and 6326.21 | GUS activity (hydrolysis rate of MUG) (HsGUS (human GUS); [Inhibitor 1] =25 nM, [MUG] 0.1 mM): 888.487 and 880.944 | GUS activity (hydrolysis rate of MUG) (HsGUS (human GUS); [Inhibitor 1] =25 nM, [MUG] 0.2 mM): 1602.44 and 1479.41 | GUS activity (hydrolysis rate of MUG) (HsGUS (human GUS); [Inhibitor 1] =25 nM, [MUG] 0.4 mM): 2621.31 and 2595.47 | GUS activity (hydrolysis rate of MUG) (HsGUS (human GUS); [Inhibitor 1] =25 nM, [MUG] 0.6 mM): 3374.76 and 3226.51 | GUS activity (hydrolysis rate of MUG) (HsGUS (human GUS); [Inhibitor 1] =25 nM, [MUG] 0.8 mM): 3934.08 and 3700.76 | GUS activity (hydrolysis rate of MUG) (HsGUS (human GUS); [Inhibitor 1] =25 nM, [MUG] 1.2 mM): 4557.18 and 4846.86 | GUS activity (hydrolysis rate of MUG) (HsGUS (human GUS); [Inhibitor 1] =25 nM, [MUG] 1.6 mM): 5394.55 and 5298.67 | GUS activity (hydrolysis rate of MUG) (HsGUS (human GUS); [Inhibitor 1] =25 nM, [MUG] 2 mM): 6010.34 and 6068.98 | GUS activity (hydrolysis rate of MUG) (HsGUS (human GUS); [Inhibitor 1] =50 nM, [MUG] 0.1 mM): 874.409 and 866.834 | GUS activity (hydrolysis rate of MUG) (HsGUS (human GUS); [Inhibitor 1] =50 nM, [MUG] 0.2 mM): 1446.88 and 1448.8 | GUS activity (hydrolysis rate of MUG) (HsGUS (human GUS); [Inhibitor 1] =50 nM, [MUG] 0.4 mM): 2554.3 and 2362.71 | GUS activity (hydrolysis rate of MUG) (HsGUS (human GUS); [Inhibitor 1] =50 nM, [MUG] 0.6 mM): 3157.04 and 3034.34 | GUS activity (hydrolysis rate of MUG) (HsGUS (human GUS); [Inhibitor 1] =50 nM, [MUG] 0.8 mM): 3775.39 and 3558.36 | GUS activity (hydrolysis rate of MUG) (HsGUS (human GUS); [Inhibitor 1] =50 nM, [MUG] 1.2 mM): 4410.62 and 4573.1 | GUS activity (hydrolysis rate of MUG) (HsGUS (human GUS); [Inhibitor 1] =50 nM, [MUG] 1.6 mM): 4956.91 and 5204.72 | GUS activity (hydrolysis rate of MUG) (HsGUS (human GUS); [Inhibitor 1] =50 nM, [MUG] 2 mM): 5814.43 and 5846.27 | GUS activity (hydrolysis rate of MUG) (HsGUS (human GUS); [Inhibitor 1] =100 nM, [MUG] 0.1 mM): 714.467 and 698.837 | GUS activity (hydrolysis rate of MUG) (HsGUS (human GUS); [Inhibitor 1] =100 nM, [MUG] 0.2 mM): 1267.32 and 1255.83 | GUS activity (hydrolysis rate of MUG) (HsGUS (human GUS); [Inhibitor 1] =100 nM, [MUG] 0.4 mM): 2205.11 and 2224.51 | GUS activity (hydrolysis rate of MUG) (HsGUS (human GUS); [Inhibitor 1] =100 nM, [MUG] 0.6 mM): 2972.37 and 2813 | GUS activity (hydrolysis rate of MUG) (HsGUS (human GUS); [Inhibitor 1] =100 nM, [MUG] 0.8 mM): 3383.16 and 3413.02 | GUS activity (hydrolysis rate of MUG) (HsGUS (human GUS); [Inhibitor 1] =100 nM, [MUG] 1.2 mM): 4189.2 and 4174.02 | GUS activity (hydrolysis rate of MUG) (HsGUS (human GUS); [Inhibitor 1] =100 nM, [MUG] 1.6 mM): 4730.59 and 4939.86 | GUS activity (hydrolysis rate of MUG) (HsGUS (human GUS); [Inhibitor 1] =100 nM, [MUG] 2 mM): 5626.48 and 5332.35 | GUS activity (hydrolysis rate of MUG) (HsGUS (human GUS); [Inhibitor 1] =200 nM, [MUG] 0.1 mM): 493.269 and 528.779 | GUS activity (hydrolysis rate of MUG) (HsGUS (human GUS); [Inhibitor 1] =200 nM, [MUG] 0.2 mM): 887.805 and 953.041 | GUS activity (hydrolysis rate of MUG) (HsGUS (human GUS); [Inhibitor 1] =200 nM, [MUG] 0.4 mM): 1572.94 and 1681.59 | GUS activity (hydrolysis rate of MUG) (HsGUS (human GUS); [Inhibitor 1] =200 nM, [MUG] 0.6 mM): 2196.34 and 2140.47 | GUS activity (hydrolysis rate of MUG) (HsGUS (human GUS); [Inhibitor 1] =200 nM, [MUG] 0.8 mM): 2605.47 and 2684.29 | GUS activity (hydrolysis rate of MUG) (HsGUS (human GUS); [Inhibitor 1] =200 nM, [MUG] 1.2 mM): 3423.7 and 3486.94 | GUS activity (hydrolysis rate of MUG) (HsGUS (human GUS); [Inhibitor 1] =200 nM, [MUG] 1.6 mM): 4057.78 and 4000.72 | GUS activity (hydrolysis rate of MUG) (HsGUS (human GUS); [Inhibitor 1] =200 nM, [MUG] 2 mM): 4782.69 and 4439.05 | Ki [1]: 110 ± 33 nM | pKa [2]: 8.0
